≈ marks a conversion by molar mass, not a printed value. Calls of active or inactive are those of the source. No cut-off for these calls is given here.
What was measured:
Histone deacetylase 1 = Histone deacetylase 1 (Homo sapiens, UniProt Q13547); experiment: Inhibition of full-length recombinant human HDAC1 (1 to 482 residues) expressed in baculovirus infected insect cells using Ac-Leu-Gly-Lys(Ac)-AMC as substrate incubated for 30 mins by fluorescence based assay; set-up: species or system Insect cell
Histone deacetylase 1, sequence (Q13547 whole entry, the tested form may be a part): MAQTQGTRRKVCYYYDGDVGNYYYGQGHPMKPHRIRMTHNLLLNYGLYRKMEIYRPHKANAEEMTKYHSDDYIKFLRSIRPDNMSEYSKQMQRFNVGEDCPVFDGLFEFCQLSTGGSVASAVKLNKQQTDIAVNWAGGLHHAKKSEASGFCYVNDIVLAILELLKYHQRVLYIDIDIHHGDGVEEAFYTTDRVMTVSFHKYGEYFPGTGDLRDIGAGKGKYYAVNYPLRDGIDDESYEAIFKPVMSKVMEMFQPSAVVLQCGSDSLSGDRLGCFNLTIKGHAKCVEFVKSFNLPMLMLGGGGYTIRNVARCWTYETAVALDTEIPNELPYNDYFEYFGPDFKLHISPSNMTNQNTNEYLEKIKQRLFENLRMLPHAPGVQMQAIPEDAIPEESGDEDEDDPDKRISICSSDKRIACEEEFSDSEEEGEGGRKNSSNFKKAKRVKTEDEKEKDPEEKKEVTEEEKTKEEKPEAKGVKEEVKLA

[1] = biological target: Bromodomain-containing protein 4 (Homo sapiens, UniProt O60885); experiment: Inhibition of recombinant BRD4 (unknown origin) incubated for 120 mins by TR-FRET assay
HL-60 = experiment: Antiproliferative activity against human HL-60 cells assessed as cell growth inhibition incubated for 24 hrs by CCK-8 assay; assay type: functional, cell-based; settings: HL-60, 24 h
MDA-MB-231 [2] = experiment: Antiproliferative activity against human MDA-MB-231 cells assessed as cell growth inhibition incubated for 24 hrs by CCK-8 assay; assay type: functional, cell-based; settings: MDA-MB-231, 24 h
Cryptococcus neoformans = experiment: Antifungal activity against Cryptococcus neoformans H99 assessed as fungal growth inhibition measured after 48 hrs by CLSI based micro-dilution broth method; assay type: functional
Candida albicans [3] = experiment: microbe, parasite or virus in culture; assay type: functional; settings: 0304103, time 48 hrs
Description: Synergistic antifungal activity against azole-resistant Candida albicans 0304103 assessed as fungal growth inhibition measured after 48 hrs by CLSI based micro-dilution broth method

Candida albicans [4] = assay type: functional, 0304103; settings: time 48 hrs
Description: Synergistic antifungal activity against azole-resistant Candida albicans 0304103 assessed as fractional inhibitory concentration index measured after 48 hrs in presence of FLC by CLSI based micro-dilution broth method

[5] = biological target: T1, Protein deacetylase HDAC6 (Homo sapiens, UniProt Q9UBN7); experiment: Inhibition of N-terminal GST-tagged recombinant human HDAC6 expressed in baculovirus infected Sf9 insect cells using Ac-Leu-Gly-Lys(Ac)-AMC as substrate incubated for 30 mins by fluorescence based assay
T1 sequence (Q9UBN7 whole entry): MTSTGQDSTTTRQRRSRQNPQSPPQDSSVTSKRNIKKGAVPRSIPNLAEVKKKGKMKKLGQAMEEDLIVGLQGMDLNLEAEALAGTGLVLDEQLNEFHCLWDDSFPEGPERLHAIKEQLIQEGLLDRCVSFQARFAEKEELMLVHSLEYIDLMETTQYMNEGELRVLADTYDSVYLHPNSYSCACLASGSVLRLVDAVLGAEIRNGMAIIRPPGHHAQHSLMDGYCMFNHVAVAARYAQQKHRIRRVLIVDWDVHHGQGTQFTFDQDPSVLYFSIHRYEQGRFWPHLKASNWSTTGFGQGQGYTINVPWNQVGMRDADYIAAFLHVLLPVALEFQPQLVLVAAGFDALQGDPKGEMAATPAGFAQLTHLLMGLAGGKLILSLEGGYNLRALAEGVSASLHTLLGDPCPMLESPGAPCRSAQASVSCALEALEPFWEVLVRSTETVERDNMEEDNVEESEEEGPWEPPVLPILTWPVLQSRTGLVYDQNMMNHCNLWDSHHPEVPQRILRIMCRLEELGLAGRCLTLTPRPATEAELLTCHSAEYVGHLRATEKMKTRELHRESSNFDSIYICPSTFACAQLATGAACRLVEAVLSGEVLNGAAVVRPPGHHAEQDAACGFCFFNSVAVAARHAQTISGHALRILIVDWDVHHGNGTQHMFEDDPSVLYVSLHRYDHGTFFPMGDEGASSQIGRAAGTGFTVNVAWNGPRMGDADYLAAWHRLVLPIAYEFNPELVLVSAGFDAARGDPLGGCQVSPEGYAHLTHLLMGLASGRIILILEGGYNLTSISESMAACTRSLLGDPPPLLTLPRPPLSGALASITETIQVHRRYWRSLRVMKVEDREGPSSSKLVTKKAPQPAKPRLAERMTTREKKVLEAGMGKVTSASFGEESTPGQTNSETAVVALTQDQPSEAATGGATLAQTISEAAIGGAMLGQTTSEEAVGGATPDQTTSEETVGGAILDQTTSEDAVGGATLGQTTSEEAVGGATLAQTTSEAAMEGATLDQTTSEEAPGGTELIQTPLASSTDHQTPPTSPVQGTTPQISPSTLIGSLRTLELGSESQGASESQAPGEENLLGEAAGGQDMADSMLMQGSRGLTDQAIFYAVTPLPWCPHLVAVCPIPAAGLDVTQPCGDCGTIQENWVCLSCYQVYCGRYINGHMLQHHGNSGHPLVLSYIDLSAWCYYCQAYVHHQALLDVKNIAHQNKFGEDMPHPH

Histone deacetylase 8 = biological target: T2, Histone deacetylase 8 (Homo sapiens, UniProt Q9BY41); experiment: Inhibition of C-terminal His-tagged full-length recombinant human HDAC8 expressed in baculovirus infected Sf9 insect cells using Ac-Leu-Gly-Lys(Tfa)-AMC as substrate incubated for 30 mins by fluorescence based assay
T2 sequence (Q9BY41 whole entry): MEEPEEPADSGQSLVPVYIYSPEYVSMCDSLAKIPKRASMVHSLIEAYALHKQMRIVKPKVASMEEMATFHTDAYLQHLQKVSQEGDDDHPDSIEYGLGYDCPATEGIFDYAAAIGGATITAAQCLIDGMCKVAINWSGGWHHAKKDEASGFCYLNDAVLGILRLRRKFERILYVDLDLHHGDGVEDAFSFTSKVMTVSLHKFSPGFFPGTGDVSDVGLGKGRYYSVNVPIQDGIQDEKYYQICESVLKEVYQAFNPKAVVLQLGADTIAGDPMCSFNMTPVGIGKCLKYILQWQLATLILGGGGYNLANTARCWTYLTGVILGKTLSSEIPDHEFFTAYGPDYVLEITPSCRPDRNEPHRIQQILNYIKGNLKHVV

[6] = biological target: Bromodomain-containing protein 2 (Homo sapiens, UniProt P25440); experiment: Inhibition of recombinant BRD2 BD1 (unknown origin) incubated for 120 mins by TR-FRET assay
Bromodomain-containing protein 2, sequence (P25440 whole entry): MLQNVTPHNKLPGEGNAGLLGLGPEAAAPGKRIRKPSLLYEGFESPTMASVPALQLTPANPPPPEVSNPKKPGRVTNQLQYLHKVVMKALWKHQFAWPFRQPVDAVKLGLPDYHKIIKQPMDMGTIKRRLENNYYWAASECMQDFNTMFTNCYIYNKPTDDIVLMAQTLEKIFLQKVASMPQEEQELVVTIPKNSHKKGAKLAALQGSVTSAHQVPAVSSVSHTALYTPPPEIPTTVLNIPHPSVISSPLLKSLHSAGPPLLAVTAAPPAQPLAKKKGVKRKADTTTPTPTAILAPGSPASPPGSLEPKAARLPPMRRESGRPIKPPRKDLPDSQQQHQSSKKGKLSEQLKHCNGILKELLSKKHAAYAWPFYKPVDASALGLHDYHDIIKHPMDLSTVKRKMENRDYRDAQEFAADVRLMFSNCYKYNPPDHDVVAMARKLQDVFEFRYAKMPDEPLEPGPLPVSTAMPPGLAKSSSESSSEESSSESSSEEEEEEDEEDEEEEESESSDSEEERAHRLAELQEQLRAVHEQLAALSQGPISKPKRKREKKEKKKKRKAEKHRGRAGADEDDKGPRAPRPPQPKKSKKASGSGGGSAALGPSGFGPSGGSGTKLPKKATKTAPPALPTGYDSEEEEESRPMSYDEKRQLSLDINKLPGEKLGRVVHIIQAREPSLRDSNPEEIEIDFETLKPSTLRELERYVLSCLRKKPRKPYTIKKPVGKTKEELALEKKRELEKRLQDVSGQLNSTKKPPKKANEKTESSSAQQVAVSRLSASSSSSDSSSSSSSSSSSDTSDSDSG

MDA-MB-231 [7] = experiment: Downregulation of c-Myc expression in human MDA-MB-231 cells incubated for 24 hrs by Western blot analysis; assay type: functional, cell-based; settings: dose 0.2-5 µM
MDA-MB-231 [8] = experiment: Induction of apoptosis in human MDA-MB-231 cells incubated for 48 hrs by Annexin V-FITC/PI staining based flow cytometry; assay type: functional, cell-based; settings: dose 2.5-10 µM
MDA-MB-231 [9] = experiment: Induction of apoptosis in human MDA-MB-231 cells assessed as late apoptotic cells at 5 uM incubated for 48 hrs by Annexin V-FITC/PI staining based flow cytometry relative to control; assay type: functional
MDA-MB-231 [10] = experiment: Induction of apoptosis in human MDA-MB-231 cells assessed as late apoptotic cells at 10 uM incubated for 48 hrs by Annexin V-FITC/PI staining based flow cytometry relative to control; assay type: functional
Candida albicans [11] = experiment: Synergistic antifungal activity against azole-resistant Candida albicans 0304103 assessed as fungal growth inhibition measured upto 24 hrs in presence of FLC by absorbance based assay; assay type: functional, organism-based; settings: dose 4-16 µg/ml
Candida albicans [12] = experiment: Antifungal activity FLC-resistant Candida albicans 0304103 assessed as hyphal formation at 32 ug/ml incubated for 3 hrs by inverse fluorescent microscopy; assay type: functional, organism-based; settings: dose 32.0 µg/ml
Candida albicans [13] = experiment: Synergistic antifungal activity FLC-resistant Candida albicans 0304103 assessed as hyphal formation at 32 ug/ml incubated for 3 hrs in presence of FLC by inverse fluorescent microscopy; assay type: functional, organism-based; settings: dose 32.0 µg/ml
[14] = Metabolic stability in ICR mouse liver microsome assessed as half life; assay type: ADME; settings: liver microsomes
Candida albicans [15] = experiment: Synergistic antifungal activity against Candida albicans 0304103 infected in ICR mouse assessed as decrease in kidney fungal load at 10 to 20 mg/kg, ip for 5 consecutive days; assay type: functional, organism-based; settings: dose 10-20 mg/kg, time 5.0 day

Row | Compound | IC50 (Histone deacetylase 1) [µM] | IC50 [1] [µM] | IC50 (HL-60) [µM] | IC50 (MDA-MB-231 [2]) [µM] | MIC80 (Cryptococcus neoformans) [µg/mL] | MIC80 (Candida albicans [3]) [µg/mL] | fractional inhibitory concentration index (FICI) (Candida albicans [4]) | IC50 [5] [µM] | IC50 (Histone deacetylase 8) [µM] | IC50 [6] [µM] | Activity (MDA-MB-231 [7]) | Activity (MDA-MB-231 [8]) | Activity (MDA-MB-231 [9]) [%] | Activity (MDA-MB-231 [10]) [%] | Activity (Candida albicans [11]) | Activity (Candida albicans [12]) | Activity (Candida albicans [13]) | half-life [14] [min] | Activity (Candida albicans [15])
1 | COc1cc2c(cc1-c1c(C)noc1C)[nH]c1ncnc(NCCCCCCC(=O)NO)c12 | 0.01 | 0.035 | 1.2 | 0.5 | 8 (≈ 17.7 µM) | > 64 | 0.07 | 0.009 | 0.784 | 0.174 | Dose-Dependent Effect | Dose-Dependent Effect | 58.39 | 69.85 | Dose-Dependent Effect | Active | inactive | 53.3 | Active
2 | COc1cc2c(cc1-c1c(C)noc1C)[nH]c1nc(C)nc(NCCCCCCC(=O)NO)c12 | 0.019 | 0.063 | 1.9 | 1 | 8 (≈ 17.1 µM) | > 64 | 0.25 | 0.014 | 0.782 | 2.01 | Dose-Dependent Effect | Dose-Dependent Effect | 46.61 | 49.38 | Dose-Dependent Effect | Active | inactive | 19.3 | Active

Source: ChEMBL document CHEMBL5316308, “BET-HDAC Dual Inhibitors for Combinational Treatment of Breast Cancer and Concurrent Candidiasis” (J Med Chem, 2023)
